| SMILES | melting point [°C] |
| --- | --- |
| O=C(NOC1CCCCO1)c1ccc(-c2ccc3ncnc(Nc4ccc(OCc5cccc(F)c5)c(Cl)c4)c3c2)s1 (stereo unspecified) | 250 |
| CCOc1ccc(/C=C/c2cc(OC)cc(OC)c2)cc1 | 54 to 55 |
| CC1CC(C)(CO)CN1c1ccc(C#N)c2ccccc12 (stereo unspecified) | 100 to 101 |
| COc1ccc(-c2noc(C3CCCN(C(=O)c4ccccc4)C3)n2)cc1 (stereo unspecified) | 121 |
| CC(O)c1cc(Cl)ccc1O (stereo unspecified) | 98 |
| CC(=O)Nc1ccc(Nc2ccccc2[N+](=O)[O-])cc1 | 164 to 166 |
| O=c1[nH]cccc1CCCCCCCCCCCCc1ccc[nH]c1=O | 210 |
| COc1cc(C=C2SC(=O)NC2=O)cc(OC)c1O | 248 to 249 |
| COc1ccc(-c2cc3n(n2)C(=O)c2ccccc2-3)cc1 | 180 to 181 |
| CCCCn1c(=O)c2c(ncn2S(C)(=O)=O)n(CCCC)c1=O | 98 to 100 |
| CCc1nnc(/C=C/c2cn(-c3ccccc3)nc2OCc2ccc(OCc3nc(-c4ccco4)oc3C)c(OC)c2)o1 | 183 to 184 |
| CCCn1cnc2c1c(=O)n(CC(C)(O)C#CCN(CC)CC)c(=O)n2C (stereo unspecified) | 109 |
| CC(C)(C)OC(=O)Nc1ccc(O)c(C(=O)O)c1 | > 270 |
| Cc1[nH]c(=O)n(-c2cc(C(=O)OC(C)C)c(Cl)cc2F)c(=O)c1C#N | 189 to 193 |
| Brc1ccccc1SSc1ccccc1Br | 95 to 97 |
| COc1cc2c(c3c1OC(C)(C)C3)C(c1cccc(N(CC(N)=O)S(C)(=O)=O)c1)=NC(C)(C)C2 | 190 to 191 |
| COc1ccc(-c2cc3cc(Br)ccc3o2)cc1 | 189 |
| NS(=O)(=O)c1ccc(S(=O)(=O)CCCc2ccc(O)cc2)s1 | 112 to 115 |
| O=c1n(-c2ccc(OCC(F)(F)C(F)F)cc2)cnn1CC(O)(Cn1cncn1)c1ccc(F)cc1F (racemic) | 79 to 80 |
| Cc1nn(C(C)(C)C)c(N)c1C(N)=O | 195 to 196 |

| SMILES | melting point [°C] |
| --- | --- |
| COc1cc(C(=O)c2ccccn2)cc([N+](=O)[O-])c1OC | 113 |
| OCC#Cc1cnc(Cl)nc1NC1CCCC1 | 162 to 163 |
| O=C(OCCN1C(=O)c2ccccc2C1=O)c1cccc2c(=O)c(OCCN3C(=O)c4ccccc4C3=O)c(-c3ccc(OCc4ccc5ccccc5n4)cc3)oc12 | 211 to 212 |
| CS(=O)(=O)c1ccc(-c2cc(-c3csc(N)n3)sc2-c2ccc(F)cc2)cc1 | 243 to 245 |
| COC(=O)C(CC(C)C)NCC(=O)Nc1cccc2c1C(=O)c1c(NC(=O)CNC(CC(C)C)C(=O)OC)cccc1C2=O (stereo unspecified) | 238 to 239 |
| CN1CC(CO)C=C2c3cccc4[nH]c(Br)c(c34)CC21 (stereo unspecified) | 193 |
| COc1ccc(OCCCc2cn(-c3ccc(C(F)(F)F)cn3)nc2C(C)C)c(CC(=O)O)c1 | 143 to 144 |
| CC(C)(C)NCC(O)c1ccc(N)c(C#N)c1F (stereo unspecified) | 150 to 151 |
| O=C(CCCC(=O)N1CCC(c2ccc(Cl)cc2)CC1)c1ccc2c(c1)CCNCC2 | 112 to 113 |
| CSc1ccc(F)cc1C(C)=O | 82 to 84.3 |
| Cc1c(N2CCC(n3cccc3)CC2)c(F)cn2c(=O)c(C(=O)O)cc(C3CC3)c12 | 268 to 269 |
| CC(=O)OC1CC2=CC(=O)C3C4CCC(C(C)CCCC(C)C)C4(C)CCC3C2(C)C(OC(C)=O)C1 (stereo unspecified) | 121 to 122 |
| COC(=O)c1cc2c(C)ccc(C)c2n1C(=O)OC | 75 to 80 |
| Cc1nnc(-c2[nH]c3ccccc3c2Cl)o1 | 267 to 268 |
| BrCc1cccc(-c2cccc(CBr)n2)n1 | 180 to 181 |
| N=C(Nc1ccc(Cl)cc1)Nc1ncccc1OCc1ccccc1 | 170 to 172 |
| COC(=O)c1cc([N+](=O)[O-])cc(-c2ccc(NC(=O)OC(C)(C)C)cc2)c1C | 131 to 132 |
| CC1(C)CS(=O)(=O)CC(C)(C)N1Br | 150 |
| COc1ccc(C2(C)C(=O)Nc3cc(N4CCN(C)CC4)cc(Cl)c3C2=O)cc1 (stereo unspecified) | 201 to 202 |
| O=c1nc(-c2ccncc2O)nc2n(C3CCCC3)[nH]c(C(F)(F)F)c1-2 | 205 to 206 |

| SMILES | melting point [°C] |
| --- | --- |
| CCOC(=O)c1ccc(CNC(N)=O)cc1 | 173 to 175 |
| CC(C)CNc1nc(-c2ccccc2)c(Cl)n2c(Br)cnc12 | 138 |
| COc1cc(C(=O)c2c(F)cccc2F)ccc1O | 147 to 149 |
| Cc1cc(=O)c(C(=O)Nc2ccccc2)c(C)o1 | 148 to 149 |
| CCc1ccc(C(=O)CCCSc2nnnn2C)cc1 | 68 to 69 |
| O=C(NC[C@@H]1CN2C(=O)C[C@H]2O1)c1cc(F)ccc1F (racemic) | 88.8 to 90.7 |
| COc1cc2c(cc1-c1ccoc1)C(=CNc1ccc(N3CCN(C)CC3)cc1)C(=O)NC2=O | 198 to 220 |
| Nc1ccc(C(=O)N(CCN2CCC(C(=O)c3ccc(F)cc3)CC2)c2ccccc2)cc1 | 156 to 157 |
| NC(=O)c1ccc(Cl)c([N+](=O)[O-])c1N1CC1 | 216 |
| CC(C)=NOCc1nc2c(N)nc3ccccc3c2n1CC(C)(C)O | 212 to 216 |
| COc1cccc2c(Nc3ccccc3C)c(C(=O)C3CCCCC3)cnc12 | 115 to 117 |
| CC(C)C[C@H](NC(=O)OCc1ccco1)C(=O)N[C@@H](Cc1ccccc1)C(=O)CSCc1ccco1 | 115 to 118 |
| O=C(NCCCCN1CCC(c2ccc3c(c2OCCO)CCCC3)CC1)c1ccc(-c2ccc(Cl)cc2)cc1 | 162 |
| Cn1cncc1C(c1ccc(Cl)cc1)c1ccc2c(c1)C(c1cccc(Cl)c1)SCc1nnnn1-2 (stereo unspecified) | 162 |
| O=c1oc2c(c(O)c1C(c1ccccc1)C1CC1)CCCCCCCCCC2 (stereo unspecified) | 97.8 to 99 |
| CCCn1cnc2ncnn2c1=S | 168 to 169 |
| O=C(O)c1cn(-c2ccccc2)c2c(F)c(F)c(F)cc2c1=O | 88 to 90 |
| O=[N+]([O-])c1cc(N2CCNCC2)ccc1S(=O)(=O)c1ccccc1 | 180 to 182 |
| N#CC1=CCN(c2ncccc2F)CC1 | 76 to 77 |
| Cc1ccc(S(=O)(=O)N2[C@H](CCCC(=O)O)CC[C@@H]2c2ccc(F)cc2)cc1 (racemic) | 87 |

Second part, the compound after the results:

| melting point [°C] | SMILES |
| --- | --- |
| 167 to 169 | O=C1CNC(c2cc(Br)cc(-c3ccsc3)c2)=NN1CC(F)(F)F |
| 140 to 141 | Cc1cc(Cl)cc(COc2cccc(OCc3ccc4cc(F)ccc4n3)c2)c1OCC(=O)O |
| > 250 | CC(=O)Nc1nc(C(N)=O)cs1 |
| 83 to 86 | O=Cc1cc(Cl)cc2c1OCCC2 |
| 20 to 22 | O=C1CO[C@@H]2CCCC[C@H]2O1 (relative stereo) |
| 177 to 179 | Cc1nc(-c2cccc(OC(C)C)c2)sc1C(=O)O |
| 175 to 178 | O=C(CCl)Nc1ccc2[nH]ncc2c1 |
| 224 to 225 | O=[N+]([O-])c1cc(-c2cccc3ccccc23)c2nc(Cl)ccc2c1 |
| 105 to 107 | O=C(NCC1CC1)c1cccnc1Oc1cncc(Cl)c1 |
| 86 to 89 | Cc1nn(-c2c(Cl)cc(C(F)(F)F)cc2Cl)nc1S |
| 215 to 217 | CCN(CC)CCNC(=O)c1c(I)ccc2c(=O)c3ccccc3[nH]c12 |
| 176 to 177 | COc1ccc(C2=NNC(=O)CC2c2ccccc2)cc1 (stereo unspecified) |
| 270 to 272 | CC(=O)Oc1cc(O)c(Cl)cn1 |
| 96 to 97 | CN(C)CCCCCCc1ccc(NC=NO)cc1 |
| 156 to 158 | CC(=O)Nc1cc2c(cc1[N+](=O)[O-])OC(C)(C)C1OC21 (stereo unspecified) |
| 132 to 133 | CC(C)CCc1ccc(C=CC(O)=S)cc1 |
| 125 to 126 | CC12CCC3C(CC(Cl)C4(O)CC=CCC34C)C1CC=C2Br (stereo unspecified) |
| 137 to 138 | CC(=O)Nc1ccc(S(=O)(=O)Nc2nnc(C(C)(C)C)s2)cc1 |
| 138 to 140 | FC(F)(F)Oc1ccc(-c2coc3ccc(-c4nnc(N5CCNCC5)o4)cc23)cc1 |
| 228 to 229 | CC(C)(C)C(NC(=O)c1cccc(F)c1)Nc1c(Nc2cccnc2Cl)c(=O)c1=O (stereo unspecified) |
| 63 to 64 | CCCCc1nn(-c2ccc(C(F)(F)F)cn2)cc1CCC(=O)OCC |

| melting point [°C] | SMILES |
| --- | --- |
| 174 to 175 | CS(=O)c1ccc(COc2cccc(C(=O)Nc3ccc(C#N)cc3)c2)cc1 (stereo unspecified) |
| 191 to 192 | CC(=O)Oc1c(C)c(C)c2c(c1C)CCC(C)(C(=O)N1CCN(c3cc(N4CCCC4)nc(N4CCCC4)n3)CC1)O2 (stereo unspecified) |
| 100 to 104 | CCCCCCCCCCCCCCCCCCOc1cc(OCCCOc2cccc(N)c2)cc(C(=O)N(CC(=O)O)CC(=O)O)c1 |
| 280 to 281 | O=C1COc2ccc(C3=Nc4ccccc4SC3)cc2N1 |
| 90 to 92 | COc1ccc(C(CC#N)CC#N)cc1O |
| 109 to 110 | CCOC(=O)NN=C(CO)c1cccc(Cl)c1 |
| 76 to 78 | CCCC(=O)C1C(=O)CC(c2ccc(C)cc2)CC1=O (stereo unspecified) |
| 187 | CCOC(=O)c1cc(NCc2ccccc2)c(Nc2ccc(Cl)cc2)c(S(N)(=O)=O)c1 |
| 198 to 199 | CCOc1ccccc1-c1nc2c(OC)cccc2c(=O)[nH]1 |
| 156 to 158 | CC(C)(C)c1cc(CCc2ccccc2NC(=O)NC2CCN(Cc3cccnc3)CC2)cc(C(C)(C)C)c1O |
| 92 | C#CCn1nnnc1SC(c1ccccc1)c1ccccc1 |
| 169 to 170 | Clc1ncc(-c2ccc3ccncc3c2)c2ccccc12 |
| 181 to 183 | O=C1CC[C@@H](C(=O)N[C@@H](CSCc2ccccc2)C(=O)O)N1 |
| 274 to 276 | O=C1CCC(=O)N1Cc1nc2sc3c(c2c(-c2ccc(O)cc2)c1Cl)CCS(=O)C3 (stereo unspecified) |
| 188 to 189 | COC(=O)C1=C(C)NC(C)=C(C(=O)OC)C1c1ccccc1Cl |
| 114 to 116 | COC(=O)c1c(OC(=O)N(c2ccccc2)c2ccccc2)cc(C(F)(F)F)nc1C(F)(F)F |
| 140 to 142 | O=C(O)COCc1cc2cc(Cl)ccc2n1S(=O)(=O)c1ccccc1 |
| 206 to 208 | O=C(O)c1oc(=O)c2ccc(Cl)cc2c1-c1ccccc1 |
| 100 to 102 | C=C(CCC(C)C1CCC2C3=C(C(=O)CC21C)C1(C)CCC(=O)C(C)C1CC3)C(C)C(=O)OC (stereo unspecified) |
| 208 | O=C(CC1CCN(CCCn2c(=O)[nH]c3ccccc32)CC1)c1ccc(F)cc1 |

Source: a melting point compilation (Tetko et al.; mined from patent text by program, amines drawn as free bases though some values may be those of a salt)
